Results taken from PubChem BioAssay AID2060614 (Molecular Pharmacology Branch, DTP, NCI, 2025).

System: 598228-144-R-J1-PDC complex spheroids, viability
Test: Anticancer human tumor 598228-144-R-J1-PDC patient-derived serous endometrial adenocarcinoma cell line growth inhibition [CLK]
Details: for IC50: curve of first compound; for viability, T/C: stronger effect = lower value; active = viability on the fitted dose curve at most 10% of control; inactive = the rest
Excerpt: A high-throughput screen of multi-cell type tumor spheroids was designed to identify active combinations of […] and targeted small molecules. Complex spheroids include a stromal component modeled by human endothelial cells (HUVEC) and fibroblasts modeled by human mesenchymal stem cells (MSCs). The concentration ranges selected for each drug and investigational agent were based upon clinically achievable concentrations if the clinical Cmax of the agent was known.
Compounds. The drugs and investigational agents: cirtuvivint (SM08502; NSC835563), CC-671 (NSC850746), vemurafenib (NSC761431), tapotoclax (NSC804041), sotorasib (NSC818433), adagrasib (NSC831453), MRTX-1133 (NSC836407), BAY2416964 (NSC825713), copanlisib (NSC816437), inavolisib (NSC800729), abemaciclib (NSC768073), osimertinib (NSC779217), entinostat (NSC756642), eltanexor (KPT-8602, NSC794443), venetoclax (NSC766270), ceralasertib (NSC777638), bortezomib (NSC756655), olaparib (NSC753686), talazoparib (NSC767125), alisertib (NSC759677), peposertib (NSC802822), gemcitabine (NSC613327), 5-fluorouracil (NSC19893), SN-38 (NSC673596), oxaliplatin (NSC266046), paclitaxel (NSC125973), and doxorubicin (NSC123127), were obtained from the National Cancer Institute (NCI) Developmental Therapeutics Program Chemical Repository. The FDA-approved anticancer drug set is available from the Developmental Therapeutics Program at https://dtp.cancer.gov/organization/dscb/obtaining/available plates.htm. […] The stock solutions were prepared in dimethyl sulfoxide (DMSO, Sigma-Aldrich, St. Louis, MO, cat. D2650), except for the platinum complexes which were prepared in saline (Quality Biological, Gaithersburg, MD, cat. 114-055-101), at 800-fold the tested concentration and stored at -70 degrees C prior to their use. All drugs and investigational agents were tested over a range starting from a high concentration at or near the clinical Cmax and decreasing in half-log increments. If the clinical Cmax for an agent had not been determined, the highest concentration tested was 10 microM.
Cell Culture. All cells were maintained in an incubator at 37 degrees C and 5% CO2 with 95% humidity. The PDC lines were cultured according to standard operating procedures established by the NCI PDMR. Briefly, all PDCs were thawed and cultured in Matrigel-coated flasks prepared with a working solution of 1X Ham's F-12 nutrient mix, without supplementation (Invitrogen, Waltham, MA, cat. 11765054), 100 U/mL penicillin-streptomycin (Invitrogen, cat. 15140122), and 2.5% Matrigel (Corning Inc., Corning, NY, cat. 354248) for the first three passages. The 947758-054-R-J2-PDC line was cultured in 6B/Colon 1A media, which includes advanced DMEM/F-12 (Thermo Fisher Scientific, cat. 12634028), 10 mM HEPES (Thermo Fisher Scientific, cat. 15630080), 1X GlutaMAX supplement (Thermo Fisher Scientific, cat. 35050061), 0.1 mg/mL primocin (InvivoGen, cat. ant-pm-2), 10% defined fetal bovine serum, heat inactivated (HyClone Laboratories Inc., cat. SH30070.03HI), 1.25 mM N-Acetyl-L-cysteine (Sigma-Aldrich, cat. A9165), 10 mM nicotinamide (Sigma-Aldrich, cat. N0636), 1X B-27 supplement (Thermo Fisher Scientific, cat. 17504044), 1X N-2 supplement (Thermo Fisher Scientific, cat. 17502048), and 10 microM Y-27632 dihydrochloride (Tocris Bioscience, cat. 1254). The 876862-298-R-J1-PDC was cultured in 6E media, which includes all 6B/Colon 1A media components plus 50% L-WRN conditioned media (ATCC, cat. CRL-3276), 50 ng/mL recombinant human EGF recombinant protein (hEGF; Thermo Fisher Scientific, cat. PHG0311), 10 ng/mL recombinant human fibroblast growth factor 10 (hGFG-10; PeproTech, cat. 100-26), 1 ng/mL recombinant human fibroblast growth factor 2 (hFGF-2; PeproTech, cat. 100-18B), and 1 µM prostaglandin E2 (PGE2; Tocris, cat. 2296). The 227483-062-R1-J1-PDC line was cultured in Panc media, containing all 6E components except hFGF-2, with the addition of 500 nM SB-431542 (Selleckchem, cat. S1067) and 10 nM gastrin (Tocris, cat. 3006). […]

[1] = second compound 0.0316 µM, first compound 0.0316 µM
[2] = second compound 0.0316 µM, first compound 0.1 µM
[3] = second compound 0.0316 µM, first compound 0.316 µM
[4] = second compound 0.0316 µM, first compound 1 µM
[5] = second compound 0.0316 µM, first compound 3.16 µM
[6] = second compound 0.0316 µM, first compound 10 µM
[7] = second compound 0.1 µM, first compound 0.0316 µM
[8] = second compound 0.1 µM, first compound 0.1 µM
[9] = second compound 0.1 µM, first compound 0.316 µM
[10] = second compound 0.1 µM, first compound 1 µM
[11] = second compound 0.1 µM, first compound 3.16 µM
[12] = second compound 0.1 µM, first compound 10 µM
[13] = second compound 0.316 µM, first compound 0.0316 µM
[14] = second compound 0.316 µM, first compound 0.1 µM
[15] = second compound 0.316 µM, first compound 0.316 µM
[16] = second compound 0.316 µM, first compound 1 µM
[17] = second compound 0.316 µM, first compound 3.16 µM
[18] = second compound 0.316 µM, first compound 10 µM
[19] = second compound 1 µM, first compound 0.0316 µM
[20] = second compound 1 µM, first compound 0.1 µM
[21] = second compound 1 µM, first compound 0.316 µM
[22] = second compound 1 µM, first compound 1 µM
[23] = second compound 1 µM, first compound 3.16 µM
[24] = second compound 1 µM, first compound 10 µM
[25] = second compound 3.16 µM, first compound 0.0316 µM
[26] = second compound 3.16 µM, first compound 0.1 µM
[27] = second compound 3.16 µM, first compound 0.316 µM
[28] = second compound 3.16 µM, first compound 1 µM
[29] = second compound 3.16 µM, first compound 3.16 µM
[30] = second compound 3.16 µM, first compound 10 µM
[31] = second compound 10 µM, first compound 0.0316 µM
[32] = second compound 10 µM, first compound 0.1 µM
[33] = second compound 10 µM, first compound 0.316 µM
[34] = second compound 10 µM, first compound 1 µM
[35] = second compound 10 µM, first compound 3.16 µM
[36] = second compound 10 µM, first compound 10 µM
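Also: spheroids exposed to compounds for seven days before readout.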
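For viability, T/C in this document: 100% = DMSO vehicle control wells.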

COC1C=CCC(C)C(C)S(=O)(=O)NC(=O)c2ccc3c(c2)N(CC2CCC21)CC1(CCCc2cc(Cl)ccc21)CO3 (centres undefined) + CN1CCN(c2cc(C(=O)Nc3cc4cc(-c5cnn(C)c5)ccc4cn3)ccn2)CC1
4710 nM: IC50 (second compound 0.0316 µM)
< 31.6 nM: IC50 (second compound 0.316 µM) | IC50 (second compound 1 µM) | IC50 (second compound 3.16 µM) | IC50 (second compound 10 µM)
inactive: viability, T/C [1] 128% | viability, T/C [2] 107% | viability, T/C [3] 85.1% | viability, T/C [4] 75% | viability, T/C [5] 69.2% | viability, T/C [6] 29.5% | viability, T/C [7] 122% | viability, T/C [8] 111% | viability, T/C [9] 86% | viability, T/C [10] 76.9% | viability, T/C [11] 65.5% | viability, T/C [12] 36.4% | viability, T/C [13] 15.7% | viability, T/C [14] 18.8% | viability, T/C [15] 16.8% | viability, T/C [16] 16.6% | viability, T/C [17] 20.5% | viability, T/C [18] 18.9%
active: viability, T/C [19] 1.74% | viability, T/C [20] 1.81% | viability, T/C [21] 3.02% | viability, T/C [22] 1.14% | viability, T/C [23] 1.71% | viability, T/C [24] 4.93% | viability, T/C [25] 1.85% | viability, T/C [26] 3.92% | viability, T/C [27] 1.47% | viability, T/C [28] 1.24% | viability, T/C [29] 2.51% | viability, T/C [30] 3.08% | viability, T/C [31] 0.94% | viability, T/C [32] 0.82% | viability, T/C [33] 0.72% | viability, T/C [34] 0.85% | viability, T/C [35] 2.37% | viability, T/C [36] 3.73%
5350 nM: IC50 (second compound 0.1 µM)

CC(Nc1ccc2c(c1)OCCn1cc(N3C(=O)OCC3C(F)F)nc1-2)C(N)=O (centres undefined) + CNC(=O)c1ccc(Nc2nc(OC3CCCC3)c3c(-c4ccc5nc(C)oc5c4)c[nH]c3n2)c(OC)c1
310 nM: IC50 (second compound 0.1 µM)
248 nM: IC50 (second compound 0.316 µM)
inactive: viability, T/C [1] 91.9% | viability, T/C [2] 62.8% | viability, T/C [3] 53.1% | viability, T/C [4] 38.2% | viability, T/C [5] 31.5% | viability, T/C [6] 25.8% | viability, T/C [7] 88.2% | viability, T/C [8] 70.3% | viability, T/C [9] 47% | viability, T/C [10] 35.5% | viability, T/C [11] 35.5% | viability, T/C [12] 22.1% | viability, T/C [13] 77.5% | viability, T/C [14] 58.5% | viability, T/C [15] 51.6% | viability, T/C [16] 32.2% | viability, T/C [17] 26.2% | viability, T/C [18] 22.9% | viability, T/C [19] 75.2% | viability, T/C [20] 56.4% | viability, T/C [21] 37.4% | viability, T/C [22] 32.4% | viability, T/C [23] 23.1% | viability, T/C [24] 12.8% | viability, T/C [25] 69.7% | viability, T/C [26] 58.4% | viability, T/C [27] 33.8% | viability, T/C [28] 26.4% | viability, T/C [29] 21.2% | viability, T/C [30] 13.7% | viability, T/C [31] 70.3% | viability, T/C [32] 50.6% | viability, T/C [33] 33.1% | viability, T/C [34] 22.9% | viability, T/C [35] 18.8% | viability, T/C [36] 12.6%
145 nM: IC50 (second compound 3.16 µM)
159 nM: IC50 (second compound 1 µM)
100 nM: IC50 (second compound 10 µM)
309 nM: IC50 (second compound 0.0316 µM)
